Patent US20160271258A1, “Dual Peptide-Mediated Targeted Delivery System” (MUSC FOUNDATION FOR RESEARCH DEVELOPMENT, priority 2015, published 2016)
“Also recorded” adds a separate entry of the source. Where no end group is shown, it is not given here. [ ]: non-standard residue; d: D form.

How the values were obtained:
[1] = tested on: CAL 27 (high EGFR) and SCC-15 (low EGFR) oral cancer cells; assay: Fluorescence microscopy of DY547-siCIP2A uptake in co-culture of high- and low-EGFR oral cancer cells; type: cell-based, human; details: co-culture CAL 27 and SCC-15, 4 hours, 100 nM D-siCIP2A
Protocol: (§1) Fluorescence microscopy analysis was performed after co-culture of CAL 27 (high EGFR) and SCC-15 (low EGFR) oral cancer cells incubated for 4 hours with 100 nM of DY547-conjugated siRNA targeting CIP2A (D-siCIP2A; red) in complex with GE11R9 peptide at 100:1 and 60:1 (GE11R9:siRNA) molar ratios. SCC-15 cells were stained for vimentin (green) and nuclei (blue) were counterstained with DAPI.
as §1, with “of the” for “was performed after”, “and 599 peptides” for “peptide”, “various” for “100:1 and 60:1 (GE11R9:siRNA)”, “ratios (FIGS. 3A & 3B).” for “ratios.”, “DAPI” for “DAPI.”

CIP2A = assay: Western blot analysis of CIP2A protein expression levels in CAL 27 OSCC cells; type: cell-based, human; details: CAL 27 cells, 48 hours post-treatment, 100 nM siCIP2A vs siNT
Protocol: Western blot analysis of CIP2A protein expression levels in CAL 27 OSCC cells was performed 48 hours post-treatment with GE11R9 peptide complexed to either 100 nM of siNT or siCIP2A at a 60:1 or 100:1 peptide-to-siRNA molar ratio compared to 599 peptide at a 50:1 molar ratio. β-Actin protein levels were monitored to ensure equal loading of samples.
FIG. 4 is a Western blot analysis of CIP2A protein expression levels in CAL 27 OSCC cells performed 48 hours post-treatment with dual peptide complexed to either 100 nM of siNT or siCIP2A at various GE11R9:599:siRNA molar ratios. β-Actin protein levels were monitored to ensure equal loading of samples.

GE11R9: EGFR-targeting peptide: GE11 sequence modified with a nona(D-arginine) stretch (R9) and a C-terminal Lysine (YHWYGYTPQNVIGGGG[dR][dR][dR][dR][dR][dR][dR][dR][dR]K)
targeting / specific uptake of siRNA into high-EGFR versus low-EGFR cells [1]: deliver siRNAs specifically to EGFR-overexpressing oral cancer cells; also recorded: specifically targets
delivery of bioactive siRNA (siCIP2A functionality, CIP2A protein expression) (CIP2A): not capable of mediating the delivery of bioactive siRNAs; also recorded: does not deliver bioactive siRNAs; also recorded: not able to mediate the delivery of bioactive siRNAs
